# Several values for one entry are separate records, joined by “and”; a condition that tells them apart may be missing. Identical values can stand only once. Counter-ions that a name gives are not always drawn. Like-named read-outs stand apart in the source and are kept apart here.
# Tests used:
# [1] = system: acetylcholine; assay: Inhibition of acetylcholine-induced bronchoconstriction by aerosol, anesthetized guinea pigs; format: in vivo
# Protocol: (§1) Anesthetized (Pentobarbitol-urethane) guinea pigs were artificially respired at a constant positive air pressure (Starling miniature pump) and changes in tidal air during inspiration were recorded, according to the method of Rosenthale et al., Int. Arch. Pharmacol., 172, 91 (1968). The bronchoconstrictor agents acetylcholine and histamine were administered intravenously at doses of 1 to 30 μg/kg. depending on each animal's sensitivity to these compounds, and control responses to acetylcholine and histamine were thus established. Bronchoconstrictor agents raise the resistance of the lungs to inflation thereby decreasing the tidal air flow. A solution of the test compound was then administered by aerosol, in physiological saline or distilled water, and the animals were then challenged again with acetylcholine or histamine and the degree of inhibition of bronchoconstriction by the test compound was thus determined.
# [2] = system: histamine; assay: Inhibition of histamine-induced bronchoconstriction by aerosol, anesthetized guinea pigs; format: in vivo
# Protocol: as §1
# [3] = system: cholinergic-induced bronchoconstriction; assay: Effect of drugs on cholinergic-induced bronchoconstriction in the cat (aerosol); format: in vivo; details: as cation, mean ± S.E.
# Protocol: Cats of either sex were anesthetized and respiration was arrested by the administration of an intravenous infusion of 1 mg/ml/min of succinylcholine chloride. The animals were artificially respired with a Harvard pump. A neostigmine methylsulfate solution (0.1 mg/ml) was infused intravenously at a rate of 1 ml/min until maximal or complete bronchoconstriction occurred, but the experiment was not begun until a stable state was attained. The respiratory flow was measured with a Fleisch pneumotachograph and a differential pressure transducer. Transpulmonary pressure was measured with a differential pressure transducer bridged between the trachea and the intrapleural space. Pulmonary airway resistance and compliance was measured by a modification of the Mead & Whittenberger electronic subtraction method using the Hewlett-Packard respiratory pre-amplifier or the isovolumetric method using the Buxco Pulmonary mechanics computer [Rosenthale et al., J. Pharmacol. Exp. Ther., 178, 541, (1971)].
# Drugs were administered as cation as an aerosol by means of a Monaghan ultrasonic nebulizer. The dosage was varied by adjusting the concentration of the solution. Activity was measured by the ability of the drug to reverse the increased airway resistance and decreased compliance characteristic of cholinergic stimulation induced by succinylcholine and neostigmine.
# [4] = system: smooth muscle; details: cited from earlier work
# [5] = cited from earlier work
# [6] = 0.15 μg as cation, distilled water
# [7] = 1.5 μg as cation, distilled water
# [8] = 15.0 μg as cation, distilled water
# [9] = 15.0 μg as cation, physiological saline
# [10] = 0.1 μg, listed as Promethazine methyl chloride
# [11] = 1.0 μg, listed as Promethazine methyl chloride
# [12] = 10.0 μg, listed as Promethazine methyl chloride
# [13] = 100.0 μg, listed as Promethazine methyl chloride
# [14] = 1.5 μg as cation, physiological saline
# [15] = 0.1 μg, listed as Promethazine methyl iodide
# [16] = 1.0 μg, listed as Promethazine methyl iodide
# [17] = 10.0 μg, listed as Promethazine methyl iodide
# [18] = 100.0 μg, listed as Promethazine methyl iodide
SMILES,"Mean % Inhibition (±S.E.) vs. Acetylcholine [1, 6]","Mean % Inhibition (±S.E.) vs. Acetylcholine [1, 7]","Mean % Inhibition (±S.E.) vs. Acetylcholine [1, 8]","Mean % Inhibition (±S.E.) vs. Histamine [2, 8]","Mean % Inhibition (±S.E.) vs. Acetylcholine [1, 9]","Mean % Inhibition (±S.E.) vs. Histamine [2, 9]",further results
"CC(CN1c2ccccc2Sc2ccccc21)[N+](C)(C)C (racemic) [CH3 / NO3, dl-Trimethyl[1-Methyl-2-(Phenothiazin-10-yl)Ethyl]Ammonium Nitrate]",12.0 (6.26) %,43.5 (10.33) %,100 (0) %,,,,
"CC[N+](C)(C)C(C)CN1c2ccccc2Sc2ccccc21 (racemic) [C2 H 5 / I, dl-N-Ethyl-N,N,α-Trimethyl-10H-Phenothiazine-10-Ethanaminium Iodide]",20.0 (7.70) %,62.75 (10.63) %,98.66 (1.33) %,78.67 (8.74) %,,,
"CC(CN1c2ccccc2Sc2ccccc21)[N+](C)(C)C (racemic) [CH3 / CH3 SO4, dl-Trimethyl[1-Methyl-2-(Phenothiazine-10-yl)Ethyl]Ammonium Methyl Sulfate]",,,,,86%,98%,
"CC(CN1c2ccccc2Sc2ccccc21)[N+](C)(C)C (racemic) [CH3 / Cl, dl-Trimethyl[1-Methyl-2-(Phenothiazin-10-yl)Ethyl]Ammonium Chloride]",,24.25 (10.21) % and 26.67 (6.77) %,86.3 (10.37) % and 100 (0) %,98.2 (1.8) %,,,"Pulmonary Compliance % Protection [3, 10]: 6.8±4.1%; Pulmonary Resistance % Protection [3, 10]: 8.8±7.7%; Duration 50% (time to return to 50% of control constricted state) ([3]; 0.1 μg, methyl chloride done in 3 cats, listed as Promethazine methyl chloride): 2.7 ± 1.5 min; Duration 50% (time to return to 50% of control constricted state) [3, 11]: > 10 min; Pulmonary Compliance % Protection [3, 11]: 7.8±4.1%; Pulmonary Resistance % Protection [3, 11]: 17.2±2.8%; Duration 50% (time to return to 50% of control constricted state) [3, 12]: 21.0 ± 4.0 min; Pulmonary Compliance % Protection [3, 12]: 71.4±51.1%; Pulmonary Resistance % Protection [3, 12]: 50.0±4.6%; Duration 50% (time to return to 50% of control constricted state) [3, 13]: > 60 min; Pulmonary Compliance % Protection [3, 13]: 60.8±25.7%; Pulmonary Resistance % Protection [3, 13]: 72.8±2.1%"
"CC(CN1c2ccccc2Sc2ccccc21)[N+](C)(C)C (stereo not drawn) [CH'3 / I, d-trimethyl[1-methyl-2-(phenothiazin-10-yl)ethyl]ammonium iodide]",,,,,97%,82%,
"CCC[N+](C)(C)C(C)CN1c2ccccc2Sc2ccccc21 (racemic) [n-C3 H7 / I, dl-N,N,α-Trimethyl-N-n-Propyl-10H-Phenothiazine-10-Ethanaminium Iodide]",5.5 (3.20) %,43.75 (6.51) %,84.0 (6.56) %,68.0 (8.14) %,,,
"CC(CN1c2ccccc2Sc2ccccc21)[N+](C)(C)C (racemic) [CH3 / Br, dl-Trimethyl[1-Methyl-2-(Phenothiazin-10-yl)Ethyl]Ammonium Bromide]",0%,38.75 (9.26) %,99.0 (1.0) %,,,,
"CC(CN1c2ccccc2Sc2ccccc21)[N+](C)(C)C (racemic) [CH3 / I, dl-trimethyl[1-methyl-2-(phenothiazin-10-yl)ethyl]ammonium iodide]",20.0 (13.38) %,47.0 (7.59) %,98.66 (1.33) %,98.0 (1.0) %,99.0 (1.0) % and 99.3 (0.67) %,97.5% and 98.66 (1.33) %,"Mean % Inhibition (±S.E.) vs. Acetylcholine [1, 14]: 62.38 (4.67) % and 62.75 (11.89) %; Mean % Inhibition (±S.E.) vs. Histamine ([2]; 0.15 μg as cation, physiological saline): 15.33 (6.96) %; Mean % Inhibition (±S.E.) vs. Histamine [2, 14]: 49.0 (11.14) %; Pulmonary Compliance % Protection [3, 15]: 5.8±3.6%; Pulmonary Resistance % Protection [3, 15]: 14.3±1.1%; Duration 50% (time to return to 50% of control constricted state) ([3]; 0.1 μg, methyl chloride done in 3 cats, listed as Promethazine methyl iodide): 6.7 ± 3.2 min; Duration 50% (time to return to 50% of control constricted state) [3, 16]: 11.3 ± 2.0 min; Pulmonary Compliance % Protection [3, 16]: 3.7± .52%; Pulmonary Resistance % Protection [3, 16]: 39.4±2.1%; Duration 50% (time to return to 50% of control constricted state) [3, 17]: 21.2 ± 6.8 min; Pulmonary Compliance % Protection [3, 17]: 15.5±6.0%; Pulmonary Resistance % Protection [3, 17]: 48.5±3.3%; Duration 50% (time to return to 50% of control constricted state) [3, 18]: 46.1 ± 9.7 min; Pulmonary Compliance % Protection [3, 18]: 26.4±4.1%; Pulmonary Resistance % Protection [3, 18]: 78.1±4.4%"
CN[C@@H](C)[C@H](O)c1ccccc1 [ephedrine],,,,,,,smooth muscle relaxation [4]: smooth muscle relaxant; bronchodilator activity ([5]; aerosol): not by aerosol; bronchodilator activity ([5]; oral): orally active bronchodilator
CNC[C@H](O)c1ccc(O)c(O)c1 [epinephrine],,,,,,,smooth muscle relaxation [4]: smooth muscle relaxant
"CCCC[N+](C)(C)C(C)CN1c2ccccc2Sc2ccccc21 (racemic) [n-C4 H9 / I, dl-N-n-Butyl,N,N,α-Trimethyl-10H-Phenothiazine-10-Ethanaminium Iodide]",0%,39.25 (2.53) %,52.0 (6.35) %,66.33 (2.96) %,,,
Cn1c(=O)c2[nH]cnc2n(C)c1=O [aminophylline],,,,,,,bronchial smooth muscle relaxation ([4]; in vitro or by injection in vivo): can relax bronchial smooth muscle in vitro or by injection in vivo; bronchodilator activity ([5]; aerosol): inactive as a bronchodilator aerosol
"CC(CN1c2ccccc2Sc2ccccc21)[N+](C)(C)C (stereo not drawn) [CH""3 / I, l-Trimethyl[1-Methyl-2-(Phenothiazine-10-yl)Ethyl]Ammonium Iodide]",,,,,81%,95 (4.66) %,

# From patent US4097596A, “Inhalation therapy for relieving bronchial spasm using quaternary salts of promethazine” (American Home Products Corporation, priority 1976, dated 1978)
